Strand notation (5' to 3'): a small letter for the sugar, then the base; units joined by * are phosphorothioate-linked, units joined directly phosphodiester-linked; [ ] holds rarer units or linkages, { } end groups; capitals alone tell only the bases. e = 2'-O-(2-methoxyethyl) (MOE); [5mC] = 5-methylcytosine; d = 2'-deoxy (DNA)
System: human hepatocyte growth factor receptor mRNA
Assay: Inhibition of human hepatocyte growth factor receptor mRNA levels in T-24 cells, quantitative real-time PCR; also: test concentration or dose not given here
Conditions: averages from three experiments

Substance | % INHIB (inhibition of human hepatocyte growth factor receptor mRNA levels)
209538 (antisense eT*eG*eT*eG*eA*d[5mC]*dT*dT*dA*d[5mC]*d[5mC]*d[5mC]*dT*dA*dT*eT*eA*eA*eA*eG) [compound 209538] | 28%
155120 (antisense eG*eT*eG*eT*e[5mC]*d[5mC]*dT*dA*dT*dT*dA*dA*dA*dG*d[5mC]*eA*eG*eT*eG*e[5mC]) [compound 155120] | 90%
155133 (antisense eA*eA*eA*e[5mC]*e[5mC]*dA*dT*dT*dT*d[5mC]*dT*dG*dT*dA*dG*eT*eT*eG*eG*eG) [compound 155133] | 68%
209537 (antisense eA*eG*eA*eG*eG*dT*dT*dT*dA*dT*d[5mC]*dT*dG*d[5mC]*d[5mC]*eA*eA*eA*eA*e[5mC]) [compound 209537] | 43%
209540 (antisense e[5mC]*eA*e[5mC]*eA*eT*d[5mC]*d[5mC]*d[5mC]*dT*dT*dG*dT*dA*dA*dG*eT*eT*eG*eG*eA) [compound 209540] | 52%
209522 (antisense eA*eG*eA*eG*eG*dT*dT*dT*dA*dT*d[5mC]*dT*dT*dT*d[5mC]*eG*eG*eT*eG*e[5mC]) [compound 209522] | 73%
155114 (antisense eA*eA*eT*eT*eG*dT*dT*dG*d[5mC]*dT*dT*dT*d[5mC]*dA*dA*eA*eG*eG*e[5mC]*eA) [compound 155114] | 94%
155118 (antisense e[5mC]*eA*eT*e[5mC]*e[5mC]*dA*dG*d[5mC]*dA*dT*dA*d[5mC]*dA*dG*dT*eT*eT*e[5mC]*eT*eT) [compound 155118] | 55%
155107 (antisense eT*e[5mC]*e[5mC]*eG*e[5mC]*dG*dG*dT*dG*dA*dA*dG*dT*dT*dG*eG*eG*eA*eA*eG) [compound 155107] | 42%
155100 (antisense eA*eG*e[5mC]*eT*eG*dA*dT*dA*d[5mC]*dT*dT*d[5mC]*dA*dT*dA*eT*eT*e[5mC]*eA*e[5mC]) [compound 155100] | 0%
209524 (antisense e[5mC]*eT*e[5mC]*eA*eT*dG*dT*dA*dG*dA*dA*dT*dG*dA*d[5mC]*eA*eT*eT*e[5mC]*eT) [compound 209524] | 95%
155123 (antisense eG*e[5mC]*eA*eA*eA*dG*d[5mC]*dT*dG*dT*dG*dG*dT*dA*dA*eA*e[5mC]*eT*e[5mC]*eT) [compound 155123] | 91%
209543 (antisense eG*eA*eT*eG*e[5mC]*d[5mC]*dA*d[5mC]*d[5mC]*dG*dT*dG*d[5mC]*dA*d[5mC]*eT*eG*eT*eG*e[5mC]) [compound 209543] | 85%
155108 (antisense eA*eT*eT*e[5mC]*eT*d[5mC]*dG*dG*dG*dA*d[5mC]*dA*d[5mC]*dT*dA*eA*e[5mC]*eT*eG*eA) [compound 155108] | 79%
209527 (antisense e[5mC]*eG*e[5mC]*eT*eT*d[5mC]*dA*d[5mC]*dA*dG*d[5mC]*d[5mC]*dT*dG*dA*eT*eG*eA*eA*eT) [compound 209527] | 81%
209526 (antisense eT*eT*eG*eA*eT*dA*dG*dG*dG*dA*dA*dT*dG*d[5mC]*dA*e[5mC]*eA*e[5mC]*eA*eT) [compound 209526] | 93%
155117 (antisense eG*eT*eA*eG*eA*dT*dT*dG*d[5mC]*dA*dG*dG*d[5mC]*dA*dG*eA*e[5mC]*eA*eG*eA) [compound 155117] | 75%
155126 (antisense e[5mC]*eT*eG*eT*eG*d[5mC]*dA*dT*dT*dT*d[5mC]*dA*dA*dT*dG*eT*eA*eT*eT*e[5mC]) [compound 155126] | 68%
155102 (antisense eG*eA*eG*eA*eG*dG*d[5mC]*dA*dT*dT*dG*dA*d[5mC]*dT*dG*e[5mC]*eA*eG*eG*eA) [compound 155102] | 35%
155112 (antisense eT*eA*eG*eG*eA*dG*dT*d[5mC]*dT*dT*d[5mC]*dT*d[5mC]*d[5mC]*d[5mC]*eT*eT*eG*e[5mC]*eA) [compound 155112] | 81%
155119 (antisense eA*eA*eG*eT*eA*dT*dA*dT*dT*dA*dA*dA*d[5mC]*dA*d[5mC]*eT*eT*e[5mC]*e[5mC]*eT) [compound 155119] | 92%
155113 (antisense e[5mC]*eT*eA*eA*eT*dG*dA*dG*dT*dT*dG*dA*dT*d[5mC]*dA*eT*e[5mC]*eA*eT*eA) [compound 155113] | 83%

Substance | % INHIB (inhibition of human hepatocyte growth factor receptor mRNA levels)
209555 (antisense eG*e[5mC]*eG*e[5mC]*eG*d[5mC]*dT*dG*d[5mC]*d[5mC]*d[5mC]*dT*dG*d[5mC]*d[5mC]*eA*eG*eT*eG*eA) [compound 209555] | 0%
155106 (antisense e[5mC]*eA*e[5mC]*eA*eA*d[5mC]*d[5mC]*dT*dG*d[5mC]*dA*dT*dG*dA*dA*eG*e[5mC]*eG*eA*e[5mC]) [compound 155106] | 66%
209541 (antisense eA*e[5mC]*e[5mC]*eA*eA*dG*dT*dA*d[5mC]*dT*dG*dT*dA*dA*dG*eA*eG*eA*eG*eG) [compound 209541] | 40%
209548 (antisense eT*e[5mC]*eA*eA*eG*dA*dA*dG*d[5mC]*d[5mC]*d[5mC]*dT*d[5mC]*dA*dA*eT*eA*eT*eT*eT) [compound 209548] | 67%
155121 (antisense eT*eG*eA*eA*eA*dG*dG*dA*d[5mC]*dT*dT*dT*dG*dG*d[5mC]*eT*e[5mC]*e[5mC]*e[5mC]*eA) [compound 155121] | 79%
209534 (antisense eA*eG*e[5mC]*eA*eT*dT*dA*d[5mC]*dT*dT*d[5mC]*dA*dT*dA*dT*eA*eA*eG*eG*eG) [compound 209534] | 35%
155101 (antisense eT*eT*e[5mC]*eA*eG*d[5mC]*d[5mC]*dA*d[5mC]*dA*dG*dG*dA*dA*dA*eA*eA*e[5mC]*e[5mC]*e[5mC]) [compound 155101] | 40%
155128 (antisense eA*e[5mC]*eT*eG*eT*dG*dA*dA*dT*dT*dT*dT*dT*d[5mC]*dA*eT*e[5mC]*e[5mC]*eA*eG) [compound 155128] | 83%
209549 (antisense e[5mC]*e[5mC]*eT*eG*eA*dG*d[5mC]*dA*dT*dT*dA*d[5mC]*dT*dA*dT*e[5mC]*eT*e[5mC]*eT*eT) [compound 209549] | 84%
155122 (antisense eA*eA*eG*e[5mC]*e[5mC]*dT*dA*dT*d[5mC]*d[5mC]*dA*dA*dA*dT*dG*eA*eG*eG*eA*eG) [compound 155122] | 69%
155109 (antisense eA*eG*e[5mC]*eT*e[5mC]*dG*d[5mC]*dT*dG*dT*dT*d[5mC]*dA*dA*dT*eT*eT*e[5mC]*eA*eG) [compound 155109] | 80%
209553 (antisense e[5mC]*eG*e[5mC]*e[5mC]*e[5mC]*dA*d[5mC]*dG*dA*d[5mC]*dA*dA*dG*dG*dT*eG*eA*eA*eA*e[5mC]) [compound 209553] | 0%
209533 (antisense e[5mC]*eA*e[5mC]*e[5mC]*eA*d[5mC]*dT*dG*dG*d[5mC]*dA*dA*dA*dG*d[5mC]*eA*eA*eA*eA*eT) [compound 209533] | 47%
155115 (antisense eA*eG*eT*eT*e[5mC]*d[5mC]*dT*dT*d[5mC]*d[5mC]*dT*dG*d[5mC]*dT*dT*e[5mC]*eA*eT*eG*e[5mC]) [compound 155115] | 89%
155110 (antisense eT*e[5mC]*eG*eG*eG*dA*d[5mC]*dA*d[5mC]*dT*dA*dA*d[5mC]*dT*dG*eA*eA*eT*eT*e[5mC]) [compound 155110] | 79%
155127 (antisense eG*eA*eT*e[5mC]*eT*dG*dG*dT*dT*dG*dA*dA*d[5mC]*dT*dA*eT*eT*eA*e[5mC]*eT) [compound 155127] | 84%
155132 (antisense eG*eA*eT*eT*e[5mC]*d[5mC]*d[5mC]*dT*d[5mC]*dG*dG*dT*d[5mC]*dA*dG*eA*eA*eA*eT*eT) [compound 155132] | 39%
155104 (antisense eA*eT*eG*e[5mC]*eA*dA*dT*dG*dG*dA*dT*dG*dA*dT*d[5mC]*eT*eG*eG*eG*eA) [compound 155104] | 84%
209521 (antisense eG*eG*eA*eA*e[5mC]*d[5mC]*dA*dG*dT*dG*dG*dA*dG*dA*dA*eG*eT*e[5mC]*eA*eG) [compound 209521] | 58%
209529 (antisense e[5mC]*e[5mC]*e[5mC]*eA*eG*d[5mC]*d[5mC]*dA*d[5mC]*dA*dT*dA*dT*dG*dG*eT*e[5mC]*eA*eG*e[5mC]) [compound 209529] | 87%
155116 (antisense eA*eA*eA*eT*e[5mC]*dT*dT*dT*d[5mC]*dA*dT*dG*dA*dT*dG*eA*eT*eT*e[5mC]*e[5mC]) [compound 155116] | 54%
209531 (antisense eT*eA*eA*eG*eT*d[5mC]*dA*dA*dT*dT*dT*dT*d[5mC]*dA*dA*eT*eT*eT*eA*eA) [compound 209531] | 13%

— patent US20040102622A1, “Modulation of hepatocyte growth factor receptor expression” (Isis Pharmaceuticals Inc., priority 2002, published 2004)
